Laboratory results from the supplement of paper PMC11061612.

Tests used:
Assay in all cases: combination Emax (second highest fraction inhibited in the dose matrix, 72 h); higher = more inhibition; extreme values may be limits of the assay
[1] = system: 639-V (Bladder Carcinoma)
How it was run: (§1)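 Bliss excess equals the observed combination effect minus the expected value EA + EB − EA·EB, where EA and EB are the effects of each agent alone. Combination Emax is the second-highest inhibition within the matrix. Inhibition was scaled from CellTiter-Glo 2.0 luminescence, with 0 set by vehicle wells and 1 by blank wells, after 72 hours of two-drug dosing of cells plated in 1536-well plates.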

[2] = system: RKO (Colorectal Carcinoma)
How it was run: as §1

[3] = system: MHH-PREB-1 (B-Cell Non-Hodgkin's Lymphoma)
How it was run: as §1

[4] = system: CTB-1 (B-Cell Non-Hodgkin's Lymphoma)
How it was run: as §1

[5] = system: RPMI-6666 (Non-Cancerous)
How it was run: as §1

[6] = system: LU-139 (Small Cell Lung Carcinoma)
How it was run: as §1

[7] = system: SW626 (Colorectal Carcinoma)
How it was run: as §1

[8] = system: NCI-H747 (Colorectal Carcinoma)
How it was run: as §1

[9] = system: HDLM-2 (Hodgkin's Lymphoma)
How it was run: as §1

[10] = system: CAL-54 (Kidney Carcinoma)
How it was run: as §1

[11] = system: OC-314 (Ovarian Carcinoma)
How it was run: as §1

[12] = system: 8305C (Thyroid Gland Carcinoma)
How it was run: as §1

[13] = system: HARA (Squamous Cell Lung Carcinoma)
How it was run: as §1

[14] = system: NCI-H69 (Small Cell Lung Carcinoma)
How it was run: as §1

[15] = system: LB771-HNC (Head and Neck Carcinoma)
How it was run: as §1

[16] = system: SK-OV-3 (Ovarian Carcinoma)
How it was run: as §1

[17] = system: OVCAR-8 (Ovarian Carcinoma)
How it was run: as §1

NB14 (Neuroblastoma) = system: NB14 (Neuroblastoma)
How it was run: as §1

[18] = system: SW1271 (Small Cell Lung Carcinoma)
How it was run: as §1

[19] = system: K5 (Thyroid Gland Carcinoma)
How it was run: as §1

Compound	combination Emax [1]	combination Emax [2]	combination Emax [3]	combination Emax [4]	combination Emax [5]	combination Emax [6]	combination Emax [7]	combination Emax [8]	combination Emax [9]	combination Emax [10]	combination Emax [11]	combination Emax [12]	combination Emax [13]	combination Emax [14]	combination Emax [15]	combination Emax [16]	combination Emax [17]	combination Emax (NB14 (Neuroblastoma))	combination Emax [18]	combination Emax [19]
CCN(CCO)CCCOc1ccc2c(Nc3cc(CC(=O)Nc4cccc(F)c4)[nH]n3)ncnc2c1 [AZD2811] + C[C@@H]1COCCN1C2=NC(=NC(=C2)C3(CC3)[S@](=N)(=O)C)C4=C5C=CNC5=NC=C4 [AZD6738] (first compound max 1 µM, 7x7, partner max 10 µM)	0.339	0.853	0.797	0.751	0.833	0.299	0.581	0.306	0.515	0.666	0.869	0.567	0.816	0.726	0.46	0.547	0.797	0.998	0.595	0.635
Cc1cc2ncnn2cc1Nc1ncc2c(n1)n(C1CCOCC1)c(=O)n2C [AZD7648] + C=CCn1c(=O)c2cnc(Nc3ccc(N4CCN(C)CC4)cc3)nc2n1-c1cccc(C(C)(C)O)n1 [AZD1775] (first compound max 10 µM, partner max 1 µM)	0.425	0.678	0.823	0.905	0.892	0.615	0.513	0.55	0.585	0.755	0.567	0.7	0.797	0.389	0.455	0.535	0.81	0.998	0.633	0.665
CN(CCO)CC[C@H](CSc1ccccc1)Nc1ccc(S(=O)(=O)NC(=O)c2ccc(N3CCC([C@@H](O)c4ccccc4-c4ccc(Cl)cc4)CC3)cc2)cc1S(=O)(=O)C(F)(F)F [AZD4320] + CN(C)CCCOc1ccc(-c2ccc3ncc4c(c3c2)n(C2CCOCC2)c(=O)n4C)cn1 [AZD0156] (first compound max 1 µM, 7x7, partner max 1 µM)	0.19	0.122	0.205	0.206	0.875	0.923	0.573	0.311	0.785	0.163	0.165	0.559	0.187	0.86	0.0751	0.346	0.212	0.983	0.127	0.289
Cc1c2c(nn1C)CSCc1cc(n(C)n1)CSc1cc(c3ccccc3c1)OCCCc1c(C(=O)O)n(C)c3c-2c(Cl)ccc13 [AZD5991] + Cn1cnc2c(F)c(Nc3ccc(Br)cc3Cl)c(C(=O)NOCCO)cc21 [Selumetinib] (first compound max 1 µM, 7x7, partner max 3 µM)	0.283	0.406	0.13	0.203	0.695	0.148	0.528	0.728	0.995	0.28	0.245	0.512	0.223	0.218	0.429	0.333	0.255	0.76	0.448	0.739
CC1(C)CCC(CN2CCN(c3ccc(C(=O)NS(=O)(=O)c4ccc(NCC5CCOCC5)c([N+](=O)[O-])c4)c(Oc4cnc5[nH]ccc5c4)c3)CC2)=C(c2ccc(Cl)cc2)C1 [Venetoclax] + CN(C)CCCOc1ccc(-c2ccc3ncc4c(c3c2)n(C2CCOCC2)c(=O)n4C)cn1 [AZD0156] (first compound max 1 µM, 7x7, partner max 1 µM)	0.202	0.381	0.14	0.242	0.976	0.374	0.111	0.305	0.362	0.239	0.316	0.369	0.651	0.548	0.124	0.239	0.219	0.98	0.207	0.374
C[C@@H]1COCCN1c1cc(C2([S@](C)(=N)=O)CC2)nc(-c2ccnc3[nH]ccc23)n1 [AZD6738] + O=C(c1cc(Cc2n[nH]c(=O)c3ccccc23)ccc1F)N1CCN(C(=O)C2CC2)CC1 [Olaparib] (first compound max 10 µM, 7x7, partner max 10 µM)	0.787	0.845	0.679	0.777	0.816	0.418	0.455	0.356	0.437	0.658	0.872	0.99	0.778	0.585	0.483	0.6	0.935	0.94	0.666	0.627
